In article PMC5218480 (PLoS ONE, 2017):

System: MV-4-11 cells
Test: Gene expression microarray analysis (Affymetrix PrimeView) and GSEA
Format: cell-based, human
Set-up: RFU PODN (11730768_x_at) / Fold change /veh PODN (11730768_x_at) / RFU LINC00158 (11744669_a_at) / Fold change /veh LINC00158 (11744669_a_at) / RFU DUSP10 (11751237_a_at) / Fold change /veh DUSP10 (11751237_a_at) / RFU ID3 (11757404_x_at) / Fold change /veh ID3 (11757404_x_at) / RFU PLEKHG5 (11737974_s_at) / Fold change /veh PLEKHG5 (11737974_s_at) / RFU LRRC4B (11730491_at) / Fold change /veh LRRC4B (11730491_at) / RFU GIMAP4 (11747438_a_at) / Fold change /veh GIMAP4 (11747438_a_at) / RFU KRT8 (11758183_x_at) / Fold change /veh KRT8 (11758183_x_at) / RFU CNN1 (11734310_a_at) / Fold change /veh CNN1 (11734310_a_at) / RFU VPS37D (11726825_at) / Fold change /veh VPS37D (11726825_at) / RFU C10orf10 (11716522_x_at) / Fold change /veh C10orf10 (11716522_x_at) / RFU KIR2DL2 /// KIR2DL4 /// KIR2DL5A /// KIR2DL5B /// KIR2DS1 /// KIR2DS2 /// KIR2DS3 /// KIR2DS4 /// KIR3DL3 /// KIR3DL3 /// KIR3DS1 (11738374_at) / Fold change /veh KIR2DL2 /// KIR2DL4 /// KIR2DL5A /// KIR2DL5B /// KIR2DS1 /// KIR2DS2 /// KIR2DS3 /// KIR2DS4 /// KIR3DL3 /// KIR3DL3 /// KIR3DS1 (11738374_at) / RFU C1QL1 (11718748_at) / Fold change /veh C1QL1 (11718748_at) / RFU TMPRSS4 (11747572_a_at) / Fold change /veh TMPRSS4 (11747572_a_at) / RFU HAMP (11756126_x_at) / Fold change /veh HAMP (11756126_x_at) / RFU RNFT2 (11725882_a_at) / Fold change /veh RNFT2 (11725882_a_at) / RFU NR4A2 (11747474_a_at) / Fold change /veh NR4A2 (11747474_a_at) / RFU ABCC12 (11746883_a_at) / Fold change /veh ABCC12 (11746883_a_at) / RFU TMEM136 (11760407_x_at) / Fold change /veh TMEM136 (11760407_x_at) / RFU CLDN22 /// WWC2 (11732394_at) / Fold change /veh CLDN22 /// WWC2 (11732394_at) / RFU HLA-DPB1 (11760878_x_at) / Fold change /veh HLA-DPB1 (11760878_x_at) / RFU SPINT1 (11716480_a_at) / Fold change /veh SPINT1 (11716480_a_at) / RFU GAP43 (11754022_s_at) / Fold change /veh GAP43 (11754022_s_at) / RFU A4GNT (11735810_at) / Fold change /veh A4GNT (11735810_at) / RFU PRB3 (11715151_x_at) / Fold change /veh PRB3 (11715151_x_at) / RFU TUBB4B (11761932_at) / Fold change /veh TUBB4B (11761932_at) / RFU CAPN14 (11732068_a_at) / Fold change /veh CAPN14 (11732068_a_at) / RFU TMCC2 (11721928_a_at) / Fold change /veh TMCC2 (11721928_a_at) / RFU IRGQ (11745062_a_at) / Fold change /veh IRGQ (11745062_a_at) / RFU FAM174B (11720279_a_at) / Fold change /veh FAM174B (11720279_a_at) / RFU TMPRSS4 (11748680_a_at) / Fold change /veh TMPRSS4 (11748680_a_at) / RFU FAM212B (11763350_a_at) / Fold change /veh FAM212B (11763350_a_at) / RFU PLEKHG5 (11743358_a_at) / Fold change /veh PLEKHG5 (11743358_a_at) / RFU ZSCAN30 (11745921_a_at) / Fold change /veh ZSCAN30 (11745921_a_at) / RFU CMKLR1 (11741424_a_at) / Fold change /veh CMKLR1 (11741424_a_at) / RFU LOC101060620 /// MAPK8IP1 (11723275_at) / Fold change /veh LOC101060620 /// MAPK8IP1 (11723275_at) / RFU SPTSSB (11747773_x_at) / Fold change /veh SPTSSB (11747773_x_at) / RFU PRSS12 (11739890_at) / Fold change /veh PRSS12 (11739890_at) / RFU BIN1 (11741810_x_at) / Fold change /veh BIN1 (11741810_x_at) / RFU WNT11 (11732464_a_at) / Fold change /veh WNT11 (11732464_a_at) / RFU C10orf10 (11716521_a_at) / Fold change /veh C10orf10 (11716521_a_at) / RFU C5orf56 (11738089_at) / Fold change /veh C5orf56 (11738089_at) / RFU CYB561 (11721691_x_at) / Fold change /veh CYB561 (11721691_x_at) / RFU ANKRD19P (11752326_a_at) / Fold change /veh ANKRD19P (11752326_a_at) / RFU OR2T12 /// OR2T33 /// OR2T8 (11738714_s_at) / Fold change /veh OR2T12 /// OR2T33 /// OR2T8 (11738714_s_at) / RFU VCAN (11748164_a_at) / Fold change /veh VCAN (11748164_a_at) / RFU JSRP1 (11732532_at) / Fold change /veh JSRP1 (11732532_at) / RFU KRTAP10-11 (11738290_x_at) / Fold change /veh KRTAP10-11 (11738290_x_at) / RFU MYO3A (11730013_a_at) / Fold change /veh MYO3A (11730013_a_at) / RFU EBF3 (11725865_a_at) / Fold change /veh EBF3 (11725865_a_at) / RFU CAMK2N1 (11719241_x_at) / Fold change /veh CAMK2N1 (11719241_x_at) / RFU C5orf56 (11738088_a_at) / Fold change /veh C5orf56 (11738088_a_at) / RFU OLFML3 (11715873_a_at) / Fold change /veh OLFML3 (11715873_a_at) / RFU LOC100653217 /// NTM (11731650_a_at) / Fold change /veh LOC100653217 /// NTM (11731650_a_at) / RFU MAPK11 (11762145_a_at) / Fold change /veh MAPK11 (11762145_a_at) / RFU FIZ1 (11724087_x_at) / Fold change /veh FIZ1 (11724087_x_at) / RFU OASL (11726364_x_at) / Fold change /veh OASL (11726364_x_at) / RFU SOX15 (11748057_x_at) / Fold change /veh SOX15 (11748057_x_at) / RFU CD79A (11719716_a_at) / Fold change /veh CD79A (11719716_a_at) / RFU HIST1H1D (11736915_at) / Fold change /veh HIST1H1D (11736915_at) / RFU CASKIN2 (11723855_a_at) / Fold change /veh CASKIN2 (11723855_a_at) / RFU LOC730098 (11760151_x_at) / Fold change /veh LOC730098 (11760151_x_at) / RFU OR4N2 (11742367_at) / Fold change /veh OR4N2 (11742367_at) / RFU PRRT2 (11749266_a_at) / Fold change /veh PRRT2 (11749266_a_at) / RFU SNX32 (11753110_a_at) / Fold change /veh SNX32 (11753110_a_at) / RFU CDHR5 (11726645_a_at) / Fold change /veh CDHR5 (11726645_a_at) / RFU RCAN1 (11760418_a_at) / Fold change /veh RCAN1 (11760418_a_at) / RFU FAM167A (11723789_a_at) / Fold change /veh FAM167A (11723789_a_at) / RFU FAM26E (11764081_at) / Fold change /veh FAM26E (11764081_at) / RFU ISYNA1 (11749810_s_at) / Fold change /veh ISYNA1 (11749810_s_at) / RFU ACY1 (11761880_at) / Fold change /veh ACY1 (11761880_at) / RFU 11764098_at / Fold change /veh 11764098_at / RFU SAMD14 (11745864_x_at) / Fold change /veh SAMD14 (11745864_x_at) / RFU NPB (11741838_a_at) / Fold change /veh NPB (11741838_a_at) / RFU TMPRSS6 (11731388_a_at) / Fold change /veh TMPRSS6 (11731388_a_at) / RFU KRTAP10-2 (11738614_at) / Fold change /veh KRTAP10-2 (11738614_at) / RFU ARHGAP8 /// PRR5-ARHGAP8 (11727945_x_at) / Fold change /veh ARHGAP8 /// PRR5-ARHGAP8 (11727945_x_at) / RFU KRTAP5-7 /// NADSYN1 (11734609_at) / Fold change /veh KRTAP5-7 /// NADSYN1 (11734609_at) / RFU RASL12 (11751679_a_at) / Fold change /veh RASL12 (11751679_a_at) / RFU CDKN2B (11736163_a_at) / Fold change /veh CDKN2B (11736163_a_at) / RFU PRF1 (11729649_at) / Fold change /veh PRF1 (11729649_at) / RFU, ZNF638 /// ZNF638-IT1 / Fold change vs veh, ZNF638 /// ZNF638-IT1 / RFU, PANK3 / Fold change vs veh, PANK3 / RFU, SH3YL1 / Fold change vs veh, SH3YL1 / RFU, ZEB2 / Fold change vs veh, ZEB2 / RFU, NRIP1 / Fold change vs veh, NRIP1 / RFU, PTTG1IP / Fold change vs veh, PTTG1IP / RFU, CAPN2 / Fold change vs veh, CAPN2 / RFU, MED14 / Fold change vs veh, MED14 / RFU, SNORA58 / Fold change vs veh, SNORA58 / RFU, C1orf63 / Fold change vs veh, C1orf63 / RFU, LRRFIP1 / Fold change vs veh, LRRFIP1 / RFU, NDUFAF7 / Fold change vs veh, NDUFAF7 / RFU, SLC12A2 / Fold change vs veh, SLC12A2 / RFU, IBTK / Fold change vs veh, IBTK / RFU, ESF1 / Fold change vs veh, ESF1 / Fold change vs veh, TMEM50B / RFU, TAOK1 / Fold change vs veh, TAOK1 / RFU, ACBD3 / Fold change vs veh, ACBD3 / RFU, TMA16 / Fold change vs veh, TMA16 / RFU, RWDD3 / Fold change vs veh, RWDD3 / RFU, BCAT1 / Fold change vs veh, BCAT1 / RFU, EDEM3 / Fold change vs veh, EDEM3 / RFU, TMEM33 / Fold change vs veh, TMEM33 / RFU, WDR75 / Fold change vs veh, WDR75 / RFU, AHCTF1 / Fold change vs veh, AHCTF1 / RFU, TFRC / Fold change vs veh, TFRC / RFU, ZDHHC17 / Fold change vs veh, ZDHHC17 / RFU, NOM1 / Fold change vs veh, NOM1 / RFU, ARL8B / Fold change vs veh, ARL8B / RFU, ZBTB11 / Fold change vs veh, ZBTB11 / RFU, TAMM41 / Fold change vs veh, TAMM41 / RFU, KIAA1704 /// LOC100996395 / Fold change vs veh, KIAA1704 /// LOC100996395 / RFU, ING1 / Fold change vs veh, ING1 / RFU, TRMT61B / Fold change vs veh, TRMT61B / RFU, FUBP3 / Fold change vs veh, FUBP3 / RFU, TP53 / Fold change vs veh, TP53 / RFU, TNKS2 / Fold change vs veh, TNKS2 / RFU, ZFP14 / Fold change vs veh, ZFP14 / RFU, ACTR2 / Fold change vs veh, ACTR2 / RFU, PPP3R1 / Fold change vs veh, PPP3R1 / RFU, PIK3R1 / Fold change vs veh, PIK3R1 / RFU, HNRNPA1 / Fold change vs veh, HNRNPA1 / RFU, RNF170 / Fold change vs veh, RNF170 / RFU, ZNF28 / Fold change vs veh, ZNF28 / RFU, RNGTT / Fold change vs veh, RNGTT / RFU, OGT / Fold change vs veh, OGT / RFU, BRD1 / Fold change vs veh, BRD1 / RFU, MARS / Fold change vs veh, MARS / RFU, ZNF655 / Fold change vs veh, ZNF655 / RFU, FAHD1 / Fold change vs veh, FAHD1 / RFU, BDP1 / Fold change vs veh, BDP1 / RFU, LRRCC1 / Fold change vs veh, LRRCC1 / RFU, ARID1A / Fold change vs veh, ARID1A / RFU, ZNF146 / Fold change vs veh, ZNF146 / RFU, ZNF330 / Fold change vs veh, ZNF330 / RFU, GPN3 / Fold change vs veh, GPN3 / RFU, C9orf123 / Fold change vs veh, C9orf123 / RFU, N4BP2L2 / Fold change vs veh, N4BP2L2 / RFU, ARFIP1 / Fold change vs veh, ARFIP1 / RFU, FAM179B / Fold change vs veh, FAM179B / RFU, BCL10 / Fold change vs veh, BCL10 / RFU, UHRF1BP1L / Fold change vs veh, UHRF1BP1L / RFU, BET1 / Fold change vs veh, BET1 / RFU, CNOT2 / Fold change vs veh, CNOT2 / RFU, ZNF268 / Fold change vs veh, ZNF268 / Fold change vs veh, ZNF507 / RFU, DGCR2 / Fold change vs veh, DGCR2 / RFU, WDSUB1 / Fold change vs veh, WDSUB1 / Fold change vs veh, HSP90B1 /// MIR3652 / RFU, ADSS / Fold change vs veh, ADSS / RFU, GK / Fold change vs veh, GK / RFU, ZNF148 / Fold change vs veh, ZNF148 / RFU, TAF9 / Fold change vs veh, TAF9 / RFU, SLC1A5 / Fold change vs veh, SLC1A5 / RFU, SLMO2 / Fold change vs veh, SLMO2 / RFU, ABCC4 / Fold change vs veh, ABCC4 / RFU, LOC101060439 /// RAP1B / Fold change vs veh, LOC101060439 /// RAP1B / RFU, RFX7 / Fold change vs veh, RFX7 / RFU, GTPBP10 / Fold change vs veh, GTPBP10 / RFU, CNEP1R1 / Fold change vs veh, CNEP1R1 / RFU, BIVM-ERCC5 /// ERCC5 / Fold change vs veh, BIVM-ERCC5 /// ERCC5 / RFU, ILF3 / Fold change vs veh, ILF3 / RFU 11762660_at / Fold change /veh 11762660_at / RFU VCAN (11757783_s_at) / Fold change /veh VCAN (11757783_s_at) / RFU DDX43 (11728927_at) / Fold change /veh DDX43 (11728927_at) / RFU KRT8 (11758188_x_at) / Fold change /veh KRT8 (11758188_x_at) / RFU NKD1 (11759106_at) / Fold change /veh NKD1 (11759106_at) / RFU SRD5A1 (11742802_a_at) / Fold change /veh SRD5A1 (11742802_a_at) / RFU TPSAB1 /// TPSB2 (11721975_s_at) / Fold change /veh TPSAB1 /// TPSB2 (11721975_s_at) / RFU GSTM3 (11746129_a_at) / Fold change /veh GSTM3 (11746129_a_at) / RFU IL23R (11737362_x_at) / Fold change /veh IL23R (11737362_x_at) / RFU TMEM51 (11727254_a_at) / Fold change /veh TMEM51 (11727254_a_at) / RFU PIWIL2 (11732686_x_at) / Fold change /veh PIWIL2 (11732686_x_at) / RFU ORM1 (11744905_x_at) / Fold change /veh ORM1 (11744905_x_at) / RFU CCDC152 (11743942_at) / Fold change /veh CCDC152 (11743942_at) / RFU ECM1 (11717891_a_at) / Fold change /veh ECM1 (11717891_a_at) / RFU IL23R (11748794_a_at) / Fold change /veh IL23R (11748794_a_at) / RFU TNFAIP8L3 (11732012_x_at) / Fold change /veh TNFAIP8L3 (11732012_x_at) / RFU MBOAT4 (11741988_at) / Fold change /veh MBOAT4 (11741988_at) / RFU 11764193_at / Fold change /veh 11764193_at / RFU TMEM53 (11763286_at) / Fold change /veh TMEM53 (11763286_at) / RFU MAGEB2 (11727129_at) / Fold change /veh MAGEB2 (11727129_at) / RFU TMEM200A (11744735_a_at) / Fold change /veh TMEM200A (11744735_a_at) / RFU CCDC152 (11751479_a_at) / Fold change /veh CCDC152 (11751479_a_at) / RFU FAM211A (11726209_a_at) / Fold change /veh FAM211A (11726209_a_at) / RFU RGS16 (11746705_a_at) / Fold change /veh RGS16 (11746705_a_at) / RFU VCAN (11755009_s_at) / Fold change /veh VCAN (11755009_s_at) / RFU RHOB (11743442_s_at) / Fold change /veh RHOB (11743442_s_at) / RFU RGS16 (11720943_a_at) / Fold change /veh RGS16 (11720943_a_at) / RFU RGS16 (11720944_at) / Fold change /veh RGS16 (11720944_at) / RFU, VPS4B / Fold change vs veh, VPS4B / RFU, CREB1 / Fold change vs veh, CREB1 / RFU, DNAJC13 / Fold change vs veh, DNAJC13 / RFU, GNAQ / Fold change vs veh, GNAQ / RFU, CDK5R1 / Fold change vs veh, CDK5R1 / RFU, ZRANB3 / Fold change vs veh, ZRANB3 / RFU, CUL4A / Fold change vs veh, CUL4A / RFU, CCNY / Fold change vs veh, CCNY / RFU, UFL1 / Fold change vs veh, UFL1 / RFU, COG3 / Fold change vs veh, COG3 / RFU, DIAPH2 / Fold change vs veh, DIAPH2 / RFU, SKA2 / Fold change vs veh, SKA2 / RFU, AFF3 / Fold change vs veh, AFF3 / RFU, LMF1 / Fold change vs veh, LMF1 / RFU, IPO11 / Fold change vs veh, IPO11 / RFU, DFFB / Fold change vs veh, DFFB / RFU, FOXP1 / Fold change vs veh, FOXP1 / RFU, CARD8 / Fold change vs veh, CARD8 / RFU, STRN3 / Fold change vs veh, STRN3 / RFU, ADK / Fold change vs veh, ADK / RFU, RASSF2 / Fold change vs veh, RASSF2 / RFU, WIPF1 / Fold change vs veh, WIPF1 / RFU, LARP1B / Fold change vs veh, LARP1B / RFU, RASA1 / Fold change vs veh, RASA1 / RFU, RB1 / Fold change vs veh, RB1 / RFU, PPFIA1 / Fold change vs veh, PPFIA1 / RFU, MAT2A / Fold change vs veh, MAT2A / RFU, CCT5 / Fold change vs veh, CCT5 / RFU, WDR92 / Fold change vs veh, WDR92 / RFU, CUX1 / Fold change vs veh, CUX1 / RFU, TTC7A / Fold change vs veh, TTC7A / RFU, TMEM135 / Fold change vs veh, TMEM135 / RFU, DEPTOR / Fold change vs veh, DEPTOR / RFU, CPM / Fold change vs veh, CPM / RFU, DNAJB6 / Fold change vs veh, DNAJB6 / RFU, CACNA2D3 / Fold change vs veh, CACNA2D3 / RFU, DTX4 / Fold change vs veh, DTX4 / RFU, TFCP2 / Fold change vs veh, TFCP2 / RFU, GMCL1 /// GMCL1P1 / Fold change vs veh, GMCL1 /// GMCL1P1 / RFU, AEBP2 / Fold change vs veh, AEBP2 / RFU, SNHG1 /// SNORD22 /// SNORD25 /// SNORD26 /// SNORD27 /// SNORD28 /// SNORD29 /// SNORD31 / Fold change vs veh, SNHG1 /// SNORD22 /// SNORD25 /// SNORD26 /// SNORD27 /// SNORD28 /// SNORD29 /// SNORD31 / Fold change (Aza/veh), C12orf56 (ProbeSet 11735607_a_at) / Fold change (ACY-1035/veh), C12orf56 (ProbeSet 11735607_a_at) / Fold change (Aza/veh), FGFR1OP (ProbeSet 11751329_s_at) / Fold change (ACY-1035/veh), FGFR1OP (ProbeSet 11751329_s_at) / Fold change (Aza/veh), VPS36 (ProbeSet 11739960_a_at) / Fold change (ACY-1035/veh), VPS36 (ProbeSet 11739960_a_at) / RFU SYPL1 (11715823_x_at) / Fold change /veh SYPL1 (11715823_x_at) / RFU IGFBP7 (11715501_s_at) / Fold change /veh IGFBP7 (11715501_s_at) / RFU REEP3 (11722064_at) / Fold change /veh REEP3 (11722064_at) / RFU IGLL1 (11728026_x_at) / Fold change /veh IGLL1 (11728026_x_at): dose or concentration left out as unconfirmed
Details: gene VPS36; Azacitidine vs DMSO; LIST F

## Nc1ncn([C@@H]2O[C@H](CO)[C@@H](O)[C@H]2O)c(=O)n1 [azacitidine]
  Fold change (Aza/veh), VPS36 (ProbeSet 11739960_a_at): 1.14
